Measured values as given in patent US9546164B2 (GENENTECH, INC., priority 2013, dated 2017).
Counter-ions that a name gives are not always drawn. Like-named read-outs stand apart in the source and are kept apart here.

Biological target: hNav1.7 (Homo sapiens (Human), UniProt Q15858)
Experiment: Tritiated sulfonamide competitive binding to membranes from cells expressing hNav1.7 and the β1 subunit;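 further: Filter-bound radioactivity counted by liquid scintillation, nonspecific binding defined with excess unlabelled ligand, IC50 fitted to percent inhibition of specific binding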
[1] = read-out: Ligand Binding Assay, 100 pM [3H]compound, membranes with hNav1.7 and β1 subunit, 18 h, room temperature

Sequence of hNav1.7 (Q15858 other isoform, or with tags, fused parts or gaps): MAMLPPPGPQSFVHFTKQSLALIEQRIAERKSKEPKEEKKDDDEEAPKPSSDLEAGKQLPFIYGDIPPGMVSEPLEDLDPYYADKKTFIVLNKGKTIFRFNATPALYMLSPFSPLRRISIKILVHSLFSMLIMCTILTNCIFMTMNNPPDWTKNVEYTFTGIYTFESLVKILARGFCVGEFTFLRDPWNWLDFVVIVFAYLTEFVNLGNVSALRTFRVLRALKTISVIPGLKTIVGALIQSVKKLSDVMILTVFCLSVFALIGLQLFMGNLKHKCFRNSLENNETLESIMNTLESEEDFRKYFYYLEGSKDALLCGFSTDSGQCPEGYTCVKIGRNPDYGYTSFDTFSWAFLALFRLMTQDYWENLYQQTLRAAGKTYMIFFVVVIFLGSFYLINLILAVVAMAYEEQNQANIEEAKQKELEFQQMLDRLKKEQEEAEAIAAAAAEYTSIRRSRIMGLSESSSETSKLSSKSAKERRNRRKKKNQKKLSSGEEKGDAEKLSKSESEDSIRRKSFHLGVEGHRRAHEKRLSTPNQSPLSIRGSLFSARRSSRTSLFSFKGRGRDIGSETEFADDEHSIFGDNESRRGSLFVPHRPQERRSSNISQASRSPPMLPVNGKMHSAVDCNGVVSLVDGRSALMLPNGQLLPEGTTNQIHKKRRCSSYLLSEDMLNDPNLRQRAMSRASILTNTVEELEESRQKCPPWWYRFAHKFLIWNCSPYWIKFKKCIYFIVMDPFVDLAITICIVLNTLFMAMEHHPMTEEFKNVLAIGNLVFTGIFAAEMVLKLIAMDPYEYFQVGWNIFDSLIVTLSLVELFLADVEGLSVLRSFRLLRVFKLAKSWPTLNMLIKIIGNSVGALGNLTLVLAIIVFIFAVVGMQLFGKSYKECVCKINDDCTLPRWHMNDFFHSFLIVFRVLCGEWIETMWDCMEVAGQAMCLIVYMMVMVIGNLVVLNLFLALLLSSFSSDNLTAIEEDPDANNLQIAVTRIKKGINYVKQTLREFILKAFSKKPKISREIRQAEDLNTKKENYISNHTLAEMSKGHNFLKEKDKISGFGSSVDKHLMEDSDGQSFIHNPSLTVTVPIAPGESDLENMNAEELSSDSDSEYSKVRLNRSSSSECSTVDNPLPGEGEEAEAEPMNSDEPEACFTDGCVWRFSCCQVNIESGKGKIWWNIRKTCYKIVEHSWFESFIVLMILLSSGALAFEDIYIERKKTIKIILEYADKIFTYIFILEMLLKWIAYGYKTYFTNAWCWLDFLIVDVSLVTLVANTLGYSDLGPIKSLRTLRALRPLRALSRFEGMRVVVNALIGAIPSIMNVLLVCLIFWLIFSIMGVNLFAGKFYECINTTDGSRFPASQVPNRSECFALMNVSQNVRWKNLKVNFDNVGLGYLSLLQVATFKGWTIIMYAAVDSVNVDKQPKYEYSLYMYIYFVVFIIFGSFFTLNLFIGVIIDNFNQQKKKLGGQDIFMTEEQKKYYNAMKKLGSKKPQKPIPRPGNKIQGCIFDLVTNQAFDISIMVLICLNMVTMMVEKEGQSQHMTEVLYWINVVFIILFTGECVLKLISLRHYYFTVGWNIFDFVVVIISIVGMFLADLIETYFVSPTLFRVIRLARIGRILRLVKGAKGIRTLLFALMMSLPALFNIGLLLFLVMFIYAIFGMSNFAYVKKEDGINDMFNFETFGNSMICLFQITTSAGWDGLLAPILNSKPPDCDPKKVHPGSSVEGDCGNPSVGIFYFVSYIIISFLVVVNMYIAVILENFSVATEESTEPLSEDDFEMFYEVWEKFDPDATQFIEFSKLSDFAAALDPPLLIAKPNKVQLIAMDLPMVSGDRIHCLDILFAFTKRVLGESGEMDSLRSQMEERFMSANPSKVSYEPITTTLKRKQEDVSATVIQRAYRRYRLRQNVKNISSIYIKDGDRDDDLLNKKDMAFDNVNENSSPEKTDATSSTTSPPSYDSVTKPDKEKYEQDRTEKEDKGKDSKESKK
Sequence of hNav1.7 (Q07699 19-218 partner): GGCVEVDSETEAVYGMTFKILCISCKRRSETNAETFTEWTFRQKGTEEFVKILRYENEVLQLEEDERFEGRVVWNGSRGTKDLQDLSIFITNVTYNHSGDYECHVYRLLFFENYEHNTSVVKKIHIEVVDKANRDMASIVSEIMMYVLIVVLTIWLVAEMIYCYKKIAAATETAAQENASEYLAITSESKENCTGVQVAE

Row | SMILES | IC50 [nM] | IC50 [1] [nM]
1 | C[C@@H]1CN(Cc2cc(F)c(C(=O)NS(=O)(=O)C3CC3)cc2C2CC2)CCN1[C@@H](C)c1cc(Cl)cc(Cl)c1 [Example 572, 5-cyclopropyl-N-(cyclopropylsulfonyl)-4-(((R)-4-((S)-1-(3,5-dichlorophenyl)ethyl)-3-methylpiperazin-1-yl)methyl)-2-fluorobenzamide] | 21.6 | –
2 | CS(=O)(=O)NC(=O)c1cc(C2CC2)c(OCC2CN(Cc3cc(F)cc(Cl)c3)C2)cc1F [Example 75, 4-((1-(3-chloro-5-fluorobenzyl)azetidin-3-yl)methoxy)-5-cyclopropyl-2-fluoro-N-(methylsulfonyl)benzamide] | – | 74
3 | CS(=O)(=O)NC(=O)c1cc(C2CC2)c(OCC2CCN(Cc3cc(Cl)cc(C#N)c3)CC2)cc1F [Example 590, 4-((1-(3-chloro-5-cyanobenzyl)piperidin-4-yl)methoxy)-5-cyclopropyl-2-fluoro-N-(methylsulfonyl)benzamide] | 26 | –
4 | O=C(NS(=O)(=O)N1CCC1)c1cc(C2CC2)c(OCC2CC3CCC(C2)N3Cc2ccccc2)cc1F (stereo not shown) [Example 48, N-(azetidin-1-ylsulfonyl)-4-((8-benzyl-8-azabicyclo[3.2.1]octan-3-yl)methoxy)-5-cyclopropyl-2-fluorobenzamide] | – | 2820
5 | CS(=O)(=O)NC(=O)c1cc(C2CC2)c(OCC2CN([C@@H](c3ccccc3)c3cccnc3)C2)cc1F [Example 82] | – | 408
6 | CS(=O)(=O)NC(=O)c1cc(C2CC2)c(O[C@@H]2CCCN(C(=O)c3cc(Cl)cc(Cl)c3)C2)cc1F [Example 221, (R)-5-cyclopropyl-4-((1-(3,5-dichlorobenzoyl)piperidin-3-yl)oxy)-2-fluoro-N-(methylsulfonyl)benzamide] | – | 1800
7 | O=C(NS(=O)(=O)C1CC1)c1cc(C2CC2)c(O[C@@H]2CCCN(Cc3ccccc3Cl)C2)cc1F [Example 23, (R)-4-((1-(2-chlorobenzyl)piperidin-3-yl)oxy)-5-cyclopropyl-N-(cyclopropylsulfonyl)-2-fluorobenzamide] | 1.7 | –
8 | O=C(NS(=O)(=O)C1CC1)c1cc(C2CC2)c(O[C@@H]2CCCN(Cc3ccc(Cl)cc3Cl)C2)cc1F [Example 31, (R)-5-cyclopropyl-N-(cyclopropylsulfonyl)-4-((1-(2,4-dichlorobenzyl)piperidin-3-yl)oxy)-2-fluorobenzamide] | 2.6 | –
9 | O=C(NS(=O)(=O)C1CC1)c1cc(C2CC2)c(CN2CCC(Oc3ccc(Cl)c(Cl)c3)CC2)cc1F [Example 510, 5-cyclopropyl-N-(cyclopropylsulfonyl)-4-((4-(3,4-dichlorophenoxy)piperidin-1-yl)methyl)-2-fluorobenzamide, trifluoroacetic acid salt] | 9.1 | –
10 | CS(=O)(=O)NC(=O)c1cc(C2CC2)c(OCC2CCN(Cc3ccc(F)c(C#N)c3)CC2)cc1F [Example 591, 4-((1-(3-cyano-4-fluorobenzyl)piperidin-4-yl)methoxy)-5-cyclopropyl-2-fluoro-N-(methylsulfonyl)benzamide] | 240 | –
11 | CS(=O)(=O)NC(=O)c1cc(C2CC2)c(CN2[C@@H]3CC[C@H]2C[C@@H](Oc2cc(Cl)cc(OC(F)(F)F)c2)C3)cc1F [Example 560, 4-(((1R,3r,5S)-3-(3-chloro-5-(trifluoromethoxy)phenoxy)-8-azabicyclo[3.2.1]octan-8-yl)methyl)-5-cyclopropyl-2-fluoro-N-(methylsulfonyl)benzamide, trifluoroacetic acid salt] | – | 2.8
12 | CS(=O)(=O)NC(=O)c1cc(C2CC2)c(OCC2CCN(Cc3ccccc3C#N)CC2)cc1F [Example 149, 4-((1-(2-Cyanobenzyl)piperidin-4-yl)methoxy)-5-cyclopropyl-2-fluoro-N-(methylsulfonyl)benzamide] | – | 73.7
13 | CS(=O)(=O)NC(=O)c1cc(C2CC2)c(OCC2CCN(Cc3ccc(F)cc3)CC2)cc1F [Example 161, 5-Cyclopropyl-2-fluoro-4-((1-(4-fluorobenzyl)piperidin-4-yl)methoxy)-N-(methylsulfonyl)benzamide] | – | 284
14 | O=C(NS(=O)(=O)C1CC1)c1cc(C2CC2)c(CN2CCC(Oc3ccc(Cl)c(C(F)(F)F)c3)CC2)cc1F [Example 520, 4-((4-(4-chloro-3-(trifluoromethyl)phenoxy)piperidin-1-yl)methyl)-5-cyclopropyl-N-(cyclopropylsulfonyl)-2-fluorobenzamide, trifluoroacetic acid salt] | 7.3 | –

Other lines, results leading:

Row | IC50 [nM] | IC50 [1] [nM] | SMILES
15 | – | 14 | CS(=O)(=O)NC(=O)c1cc(C2CC2)c(OCC2CCN(C(CF)c3cc(Cl)cc(Cl)c3)CC2)cc1F (stereo not shown) [Example 358, 5-cyclopropyl-4-((1-(1-(3,5-dichlorophenyl)-2-fluoroethyl)piperidin-4-yl)methoxy)-2-fluoro-N-(methylsulfonyl)benzamide, trifluoroacetic acid salt]
16 | – | 45.9 | CS(=O)(=O)NC(=O)c1cc(C2CC2)c(OCC2CCN(S(=O)(=O)c3ccc(OC(F)(F)F)cc3)CC2)cc1F [Example 378, 5-cyclopropyl-2-fluoro-N-(methylsulfonyl)-4-((1-((4-(trifluoromethoxy)phenyl)sulfonyl)piperidin-4-yl)methoxy)benzamide]
17 | – | 4.6 | CS(=O)(=O)NC(=O)c1cc(C2CC2)c(O[C@@H]2CCCN([C@@H](c3ccc(F)cc3Cl)C(F)(F)F)C2)cc1F (single isomer, unassigned) [Example 298]
18 | – | 4 | C[C@@H](c1cc(Cl)cc(C(F)(F)F)c1)N1CCC(COc2cc(F)c(C(=O)NS(C)(=O)=O)cc2C2CC2)CC1 (single isomer, unassigned) [Example 277]
19 | – | 4 | C[C@@H](c1cc(Cl)cc(C(F)(F)F)c1)N1CCC(C)(COc2cc(F)c(C(=O)NS(C)(=O)=O)cc2C2CC2)CC1 (single isomer, unassigned) [Example 279]
20 | – | 3.8 | CS(=O)(=O)NC(=O)c1cc(C2CC2)c(OCC2CCN(c3cccc(Cl)c3)CC2)cc1F [Example 294, 4-((1-(3-Chlorophenyl)piperidin-4-yl)methoxy)-5-cyclopropyl-2-fluoro-N-(methylsulfonyl)benzamide]
21 | – | 63.5 | O=C(NS(=O)(=O)N1CCC1)c1cc(C2CC2)c(CN2CCC[C@@H](Oc3cc(Cl)cc(Cl)c3)C2)cc1F [Example 56, (R)—N-(azetidin-1-ylsulfonyl)-5-cyclopropyl-4-((3-(3,5-dichlorophenoxy)piperidin-1-yl)methyl)-2-fluorobenzamide]
22 | – | 1.7 | C[C@@H](c1cc(Cl)cc(Cl)c1)N1CCC(C)(COc2cc(F)c(C(=O)NS(C)(=O)=O)cc2C2CC2)CC1 (single isomer, unassigned) [Example 211]
23 | – | 6 | CS(=O)(=O)NC(=O)c1cc(C2CC2)c(OCC2CCN(Cc3ccc(Br)cc3Cl)CC2)cc1F [Example 413, 4-((1-(4-bromo-2-chlorobenzyl)piperidin-4-yl)methoxy-5-cyclopropyl-2-fluoro-N-(methylsulfonyl)benzamide, trifluoroacetic acid salt]
24 | – | 5 | CS(=O)(=O)NC(=O)c1cc(C2CC2)c(OCC2CCN(Cc3cc(Cl)c(F)c(Cl)c3)CC2)cc1F [Example 454, 5-cyclopropyl-4-((1-(3,5-dichloro-4-fluorobenzyl)piperidin-4-yl)methoxy)-2-fluoro-N-(methylsulfonyl)benzamide, trifluoroacetic acid salt]
25 | – | 2.9 | CS(=O)(=O)NC(=O)c1cc(C2CC2)c(O[C@@H]2CCCN(Cc3cc(C(F)(F)F)cc(Cl)c3F)C2)cc1F [Example 311, (R)-4-((1-(3-chloro-2-fluoro-5-(trifluoromethyl)benzyl)piperidin-3-yl)oxy)-5-cyclopropyl-2-fluoro-N-(methylsulfonyl)benzamide]
26 | – | 1.8 | COC(C)(C)[C@H](c1cc(Cl)cc(Cl)c1)N1CCC(COc2cc(F)c(C(=O)NS(C)(=O)=O)cc2C2CC2)CC1 (single isomer, unassigned) [Example 206]
27 | – | 8.3 | C[C@@H](c1ccc(Cl)c(Cl)c1)N1CCC(C)(COc2cc(F)c(C(=O)NS(C)(=O)=O)cc2C2CC2)CC1 (single isomer, unassigned) [Example 219]
28 | – | 36.3 | O=C(NS(=O)(=O)C1CC1)c1cc(C2CC2)c(CN2CCO[C@@H](Cc3ccc(Cl)c(Cl)c3)C2)cc1F [Example 462]
29 | – | 6.22 | CS(=O)(=O)NC(=O)c1cc(C2CC2)c(OCC2CN([C@H](c3ccccc3)c3ccc(F)cc3)C2)cc1F [Example 145, (R)-5-Cyclopropyl-2-fluoro-4-((1-((4-fluorophenyl)(phenyl)methyl)-azetidin-3-yl)methoxy)-N-(methylsulfonyl)benzamide]
30 | – | 47 | CS(=O)(=O)NC(=O)c1cc(C2CC2)c(OCC2CCN([C@H](CO)c3cc(Cl)cc(Cl)c3)CC2)cc1F [Example 267, (S)-5-cyclopropyl-4-((1-(1-(3,5-dichlorophenyl)-2-hydroxyethyl)piperidin-4-yl)methoxy)-2-fluoro-N-(methylsulfonyl)benzamide]
31 | – | 9.9 | CC1(COc2cc(F)c(C(=O)NS(C)(=O)=O)cc2C2CC2)CN(Cc2cc(C(F)(F)F)cc(Cl)c2F)C1 [Example 593, 4-((1-(3-chloro-2-fluoro-5-(trifluoromethyl)benzyl)-3-methylazetidin-3-yl)methoxy)-5-cyclopropyl-2-fluoro-N-(methylsulfonyl)benzamide]
32 | – | 7.1 | CS(=O)(=O)NC(=O)c1cc(C2CC2)c(OC[C@@H]2CCCN(Cc3cc(Cl)cc(Cl)c3)C2)cc1F [Example 334, (R)-5-cyclopropyl-4-((1-(3,5-dichlorobenzyl)piperidin-3-yl)methoxy)-2-fluoro-N-(methylsulfonyl)benzamide]
33 | – | 9.1 | O=C(NS(=O)(=O)N1CCC1)c1cc(C2CC2)c(OCC2CCN(C3(c4cc(Cl)cc(Cl)c4)COC3)CC2)cc1F [Example 176]
34 | – | 2 | CS(=O)(=O)NC(=O)c1cc(C2CC2)c(OCC2CCN(C(c3cccc(Cl)c3)c3cccc(Cl)c3)CC2)cc1F [Example 352, 4-((1-(bis(3-chlorophenyl)methyl)piperidin-4-yl)methoxy)-5-cyclopropyl-2-fluoro-N-(methylsulfonyl)benzamide, trifluoroacetic acid salt]
